Laboratory results from publication PMC8787096, “Antagonism of nicotinic acetycholinergic receptors by CN‐105, an apoE‐mimetic peptide reduces stroke‐induced excitotoxicity” (Clinical and Translational Medicine, 2022).
Like-named read-outs stand apart in the source and are kept apart here. Residues, ends and D or L forms follow the SMILES beside them.

Legend:
α7-nAChR [1] = target: T1, α7-nAChR (Homo sapiens, UniProt P36544); assay: Patch clamp of ACh-induced currents, HEK293 cells stably expressing nAChR α7/RIC3; type: cell-based; details: for %Inhibition of α7-nAChR: peptide 200 nM, relative to currents induced by 9 μM ACh
T1 sequence (P36544 23-502): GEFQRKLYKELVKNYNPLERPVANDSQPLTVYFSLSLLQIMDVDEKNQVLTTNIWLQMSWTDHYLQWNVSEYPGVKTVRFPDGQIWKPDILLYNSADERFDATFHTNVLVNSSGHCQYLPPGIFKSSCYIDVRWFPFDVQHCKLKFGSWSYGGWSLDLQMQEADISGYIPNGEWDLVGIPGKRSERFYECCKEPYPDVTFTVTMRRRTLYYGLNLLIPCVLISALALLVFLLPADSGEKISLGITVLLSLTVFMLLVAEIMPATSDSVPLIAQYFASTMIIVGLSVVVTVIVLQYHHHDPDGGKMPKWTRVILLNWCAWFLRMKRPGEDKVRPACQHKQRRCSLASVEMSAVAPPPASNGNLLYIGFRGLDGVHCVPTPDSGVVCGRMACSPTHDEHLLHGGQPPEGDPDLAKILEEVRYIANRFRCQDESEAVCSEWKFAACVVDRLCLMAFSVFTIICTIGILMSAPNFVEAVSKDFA

[2] = test system: SD rats, transient ischemic stroke; assay: Transient middle cerebral artery occlusion (t-MCAO) model; type: in vivo, rat; details: Day 8; for Infarct volume: rat t-MCAO
Description: Eighty-three Sprague-Dawley (SD) rats were randomly divided into six groups with both sexes as follows: 1) sham group (n=8), 2) vehicle group (n=15), 3) 0.1 mg/kg CN105 (n=15), 4) 0.2 mg/kg CN105 (n=15), 5) 0.4 mg/kg CN-105 (n=15), 6) 6mg/kg edaravone (n=15). Ischemic insult was introduced based on pre-established protocol. Briefly, rats were placed supine under anesthesia, and then the left common carotid arteries were exposed under sterile conditions. A suture was gently inserted into the internal carotid artery through the external carotid artery until the origin of the middle cerebral artery was occluded. The suture thread was removed 90 min after the ischemia, allowing restoration of the blood supply. Animals in the sham group were exposed of the left common carotid artery under anesthesia without ischemic occlusion. A single dose of CN-105 or edaravone were administered intravenously (iv.) 30min after reperfusion. The injection volume was 5mL/kg, given in 2 min. Animals in each group were euthanized at the end of the experiment. Brains were fixed in 10% formalin. The 3 mm-thick coronal brain sections were scanned and imaged to measure the percentage of viable and infarction brain tissue to calculate the percentage of cerebral infarction volume.

NMDA receptor = assay: Glutamate-induced currents in HEK293 cells stably expressing NMDA receptor; type: cell-based
Description: (§1) Figure S5. Amperograms of CN-105's effect on GluR (AMPA-R) in primary rat hippocampal neuronal cultures (Left) and on GluN (NMDA-R) in a culture of HEK293 cells stably expressing NMDA receptor (Right).

[3] = test system: rat hippocampal brain slices; assay: EPSC recording (evoked, spontaneous, miniature) in hippocampal brain slices; type: cell-based
C57BL6 mice = assay: Mortality of C57BL6 mice after a single tail vein injection; type: in vivo
in vivo [4] = details: both, SD, rat, iv
α4β2-nAChR = target: T2, α4β2-nAChR (Homo sapiens, UniProt P17787+P43681); assay: Patch clamp of HEK293 cells transiently expressing nAChR α4β2; type: cell-based; details: four-parameter logistic fit; read-out: IC50, inhibition of α4β2-nAChR
T2 construct: expressed in transfected cells; host or cells: HEK293 (transient)
T2 sequence (P43681 29-627 limits assumed): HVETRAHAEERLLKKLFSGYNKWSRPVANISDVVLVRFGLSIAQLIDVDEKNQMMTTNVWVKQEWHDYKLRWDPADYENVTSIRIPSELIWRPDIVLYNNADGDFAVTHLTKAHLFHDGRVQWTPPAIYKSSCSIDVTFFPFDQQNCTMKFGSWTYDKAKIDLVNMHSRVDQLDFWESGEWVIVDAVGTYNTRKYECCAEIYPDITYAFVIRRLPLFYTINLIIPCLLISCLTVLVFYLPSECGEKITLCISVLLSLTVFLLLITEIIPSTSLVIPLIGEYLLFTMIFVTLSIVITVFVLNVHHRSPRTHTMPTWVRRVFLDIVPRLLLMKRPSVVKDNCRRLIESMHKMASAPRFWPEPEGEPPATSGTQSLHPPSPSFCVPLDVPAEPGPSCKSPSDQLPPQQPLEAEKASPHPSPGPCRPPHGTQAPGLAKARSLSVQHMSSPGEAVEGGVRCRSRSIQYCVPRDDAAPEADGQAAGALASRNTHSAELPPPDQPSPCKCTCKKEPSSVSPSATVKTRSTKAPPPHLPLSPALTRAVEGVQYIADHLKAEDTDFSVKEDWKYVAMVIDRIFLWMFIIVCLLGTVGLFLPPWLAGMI
T2 sequence (P17787 26-502): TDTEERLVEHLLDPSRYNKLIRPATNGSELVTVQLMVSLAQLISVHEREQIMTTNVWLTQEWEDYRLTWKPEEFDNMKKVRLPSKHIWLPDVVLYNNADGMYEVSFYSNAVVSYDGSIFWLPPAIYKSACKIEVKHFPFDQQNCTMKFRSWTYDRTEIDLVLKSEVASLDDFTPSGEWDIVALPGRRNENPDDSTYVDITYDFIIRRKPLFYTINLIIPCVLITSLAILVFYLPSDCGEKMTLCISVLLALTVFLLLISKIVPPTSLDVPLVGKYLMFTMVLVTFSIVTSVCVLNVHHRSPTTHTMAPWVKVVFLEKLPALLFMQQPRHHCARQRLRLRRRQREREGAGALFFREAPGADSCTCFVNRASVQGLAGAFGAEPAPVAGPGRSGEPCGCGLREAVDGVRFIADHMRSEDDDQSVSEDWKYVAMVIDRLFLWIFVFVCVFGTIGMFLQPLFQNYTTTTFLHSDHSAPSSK
Description: The patch clamp recording was performed on the third or fourth day after transfection based on the expression level of co-transfected GFP gene. Detailed description of the transfection procedures can be found in the Supporting information.
nAChR α4β2: HEK293 cells were seeded on poly-D-lysine-coated coverslips placed in a 24-well plate at a density of 8×10^3 cells per well. Cells were transfected with nAChR α4/nAChR β2/GFP with the ratio 2:2:1. The X-tremeGENE HP DNA (Roche) was used for transfection, and the ratio of plasmid to transfection reagent was 1 μg: 2 μL.

in vivo [5] = details: both, monkey, iv
[6] = monkey, in vivo, iv
AMPA receptor = assay: Glutamate-induced currents of AMPA receptor in primary hippocampal neuronal cultures; type: cell-based; details: primary rat hippocampal neuronal cultures
Description: Rat primary neuronal culture: Primary neuron cultures were prepared from newborn rats. A mixed culture of hippocampal, cortical and thalamic neurons was used for calcium imaging assays. For patch clamp studies, hippocampal neurons from the CA1 region were extracted. The trypsinized brain tissue was incubated at 37°C for 20 minutes before the removal of the enzyme. The cells were washed three times with PBS and suspended with fresh media before being plated on poly-D-lysine-coated coverslips. After 4 h, the media was replaced by Neurobasal+B27+L-Glu (Thermo scientific, USA). Half of the culture medium was changed after 24 h before switched to a 72-hr medium change routine.
as §1

[7] = rat, in vivo, iv
α1β1δε-nAChR = target: T3, α1β1δε-nAChR (Homo sapiens, UniProt P02708+P11230+Q04844+Q07001); assay: Electrophysiology of oocytes injected with nAChR α, β, δ and ε cRNA; type: cell-based
T3 construct: expressed in transfected cells
T3 sequence (P02708 21-457): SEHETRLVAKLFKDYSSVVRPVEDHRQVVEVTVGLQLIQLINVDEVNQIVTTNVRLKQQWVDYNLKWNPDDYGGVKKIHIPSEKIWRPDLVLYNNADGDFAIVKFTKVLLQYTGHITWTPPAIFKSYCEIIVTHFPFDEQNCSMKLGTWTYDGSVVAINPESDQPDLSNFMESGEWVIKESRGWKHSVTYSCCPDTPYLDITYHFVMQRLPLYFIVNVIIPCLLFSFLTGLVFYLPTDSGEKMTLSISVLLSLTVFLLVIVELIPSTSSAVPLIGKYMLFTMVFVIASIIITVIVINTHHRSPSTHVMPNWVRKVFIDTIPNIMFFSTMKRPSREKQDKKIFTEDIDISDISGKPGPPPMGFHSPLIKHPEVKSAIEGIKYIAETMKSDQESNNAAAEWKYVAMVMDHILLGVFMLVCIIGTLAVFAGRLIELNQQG
T3 sequence (P11230 24-501): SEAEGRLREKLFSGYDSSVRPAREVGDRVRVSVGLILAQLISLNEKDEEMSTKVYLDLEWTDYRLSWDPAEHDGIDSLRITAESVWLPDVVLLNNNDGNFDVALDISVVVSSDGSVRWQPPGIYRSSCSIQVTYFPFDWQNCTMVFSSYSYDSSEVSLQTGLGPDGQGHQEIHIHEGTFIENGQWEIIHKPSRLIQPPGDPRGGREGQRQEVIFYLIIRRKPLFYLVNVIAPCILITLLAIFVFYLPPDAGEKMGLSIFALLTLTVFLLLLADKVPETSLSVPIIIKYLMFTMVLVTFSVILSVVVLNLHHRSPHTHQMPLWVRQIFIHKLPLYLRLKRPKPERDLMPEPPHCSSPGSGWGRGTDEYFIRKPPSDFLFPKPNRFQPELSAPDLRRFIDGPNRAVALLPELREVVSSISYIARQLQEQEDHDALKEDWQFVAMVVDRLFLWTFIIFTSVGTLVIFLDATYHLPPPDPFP
T3 sequence (Q07001 22-517): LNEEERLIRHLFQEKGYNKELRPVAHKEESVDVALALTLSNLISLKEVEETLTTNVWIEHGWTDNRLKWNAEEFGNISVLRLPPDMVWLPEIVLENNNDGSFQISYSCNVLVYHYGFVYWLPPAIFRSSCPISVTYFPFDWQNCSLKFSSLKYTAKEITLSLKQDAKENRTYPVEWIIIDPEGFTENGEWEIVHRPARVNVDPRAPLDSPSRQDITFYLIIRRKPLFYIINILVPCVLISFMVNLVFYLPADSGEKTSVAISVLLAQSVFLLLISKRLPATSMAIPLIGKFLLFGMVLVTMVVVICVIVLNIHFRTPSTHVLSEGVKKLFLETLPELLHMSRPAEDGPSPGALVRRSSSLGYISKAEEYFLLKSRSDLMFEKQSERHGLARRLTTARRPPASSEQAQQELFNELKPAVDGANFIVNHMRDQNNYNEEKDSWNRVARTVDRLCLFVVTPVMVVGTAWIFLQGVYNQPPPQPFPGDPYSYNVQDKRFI
T3 sequence (Q04844 21-493): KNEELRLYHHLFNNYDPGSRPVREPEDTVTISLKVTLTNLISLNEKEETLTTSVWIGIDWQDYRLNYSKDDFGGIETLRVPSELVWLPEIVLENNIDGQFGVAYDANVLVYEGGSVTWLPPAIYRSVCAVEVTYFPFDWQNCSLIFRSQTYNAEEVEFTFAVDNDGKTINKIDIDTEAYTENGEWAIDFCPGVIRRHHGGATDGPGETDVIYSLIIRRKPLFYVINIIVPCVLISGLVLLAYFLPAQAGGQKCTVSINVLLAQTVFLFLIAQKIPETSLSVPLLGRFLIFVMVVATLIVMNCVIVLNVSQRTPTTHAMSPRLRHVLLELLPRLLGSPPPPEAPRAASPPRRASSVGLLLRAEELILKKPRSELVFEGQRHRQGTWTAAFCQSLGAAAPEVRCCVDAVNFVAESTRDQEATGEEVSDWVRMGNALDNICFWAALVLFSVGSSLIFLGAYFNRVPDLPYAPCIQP

Cynologous monkey = assay: GLP acute toxicology study, iv infusion; type: in vivo
Description: The acute toxicology study of CN-105 was carried out at the facility of CTI Biotechnology (China) in accordance with GLP guidelines of the National Medical Product Administration (NMPA) of China. Briefly, six Cynologous (Cyn) monkeys were assigned to three dosing groups (n = 2/group, M:F= 1:1). The animals were given an iv. infusion of saline (Group 1), 25 mg/kg CN-105 (Group 2) or 100 mg/kg CN-105 (Group 3) twice a day. The infusion volume was 20mL/kg, while the infusion rate was 30min. Forty SD rats were assigned to four dosing groups (n = 10/group, M:F= 1:1) and were given an iv. injection of saline (Group 1), 15 mg/kg CN-105 (Group 2), 30 mg/kg CN-105 (Group 3) or 45 mg/kg CN-105 (Group 4) twice a day. The infusion volume was 5mL/kg, while the infusion rate was 10min. Animals were monitored for a variety of behavioral, physiological, histological and serological endpoints.

α7-nAChR [8] = target: T1, α7-nAChR

Molecule: CC(=O)N[C@@H](C)C(=O)N[C@@H](CO)C(=O)N[C@@H](CCCNC(=N)N)C(=O)N[C@@H](CCCNC(=N)N)C(=O)N[C@@H](CCCNC(=N)N)C(N)=O [Ac-ASRRR-NH2] (Ac-ASRRR-NH2)
- %Inhibition of α7-nAChR (α7-nAChR [1]): 7.4%

Molecule: CC(=O)N[C@@H](CCCNC(=N)N)C(=O)N[C@@H](CO)C(=O)N[C@@H](CCCCN)C(=O)N[C@@H](CCCNC(=N)N)C(=O)N[C@@H](CCCNC(=N)N)C(N)=O [Ac-RSKRR-NH2] (Ac-RSKRR-NH2)
- %Inhibition of α7-nAChR (α7-nAChR [1]): 9.3%

Molecule: CC(=O)N[C@H](C(=O)N[C@@H](CO)C(=O)N[C@@H](CCCCN)C(=O)N[C@@H](CCCCN)C(=O)N[C@@H](CCCNC(=N)N)C(N)=O)C(C)C [Ac-VSKKR-NH2] (Ac-VSKKR-NH2)
- %Inhibition of α7-nAChR (α7-nAChR [1]): 48.9%

Molecule: CC1=NN(c2ccccc2)C(=O)C1 [edaravone, reference compound]
- Infarct volume ([2]; edaravone 6 mg/kg single iv 30 min after reperfusion): similar

Molecule: CC(=O)N[C@H](C(=O)N[C@@H](CO)C(=O)N[C@@H](CCCNC(=N)N)C(=O)N[C@@H](CCCNC(=N)N)C(=O)N[C@@H](CCCNC(=N)N)C(N)=O)C(C)C [CN-105, Ac-VSRRR-NH2] (Ac-VSRRR-NH2)
- Direct effect on glutamate-induced currents, NMDA receptor (NMDA receptor): did not directly inhibit
- Density of viable neurons (NeuN+ cells) ([2]; 1 mm2 area at infarct margin): higher
- Number of β3-GABAAR+ cells at infarct margin ([2]; 1 mm2 area): unaffected
- Density of α7-nAChR+ cells at infarct margin versus vehicle ([2]; primary somatosensory cortex, 1 mm2 area): higher density
- Infarct volume ([2]; 0.1 to 0.4 mg/kg single iv 30 min after reperfusion): significantly reduced
- Effect on ACh induced current (α7-nAChR [1]; 10 μM CN-105, HEK293 overexpressing α7-nAChR): strongly suppressed
- IC50 (α7-nAChR [1]; four-parameter logistic fit, read-out: IC50, inhibition of α7-nAChR): 31 nM
- %Inhibition of α7-nAChR (α7-nAChR [1]): 61.4%
- Voltage of maximal inhibition (α7-nAChR [1]; voltage dependency, CN-105 40 nM): –80 mV
- Spontaneous EPSC (sEPSC) frequency ([3]; rat hippocampal brain slice, CN-105 200 μM as printed in Figure 3 legend): attenuation
- Evoked EPSC mediated by NMDA receptor versus control ([3]; rat hippocampal brain slices, holding +50 mV): significantly lower
- Evoked EPSC mediated by AMPA receptor versus control ([3]; rat hippocampal brain slices, holding -70 mV): significantly lower
- NMDA receptor-mediated EPSC with tetrodotoxin (mEPSC) ([3]; tetrodotoxin added to block all AP firings): no longer able to affect
- Observation after removal of isoflurane anaesthesia (C57BL6 mice; 50 mg/kg, intubated and mechanically ventilated): extended sedation
- Symptoms at lethal dose (C57BL6 mice; C57BL6 mice, 25 mg/kg tail vein): spasm and respiratory suppression
- Mortality under intubation and mechanical ventilation (C57BL6 mice; C57BL6 mice, 50 mg/kg, mechanical ventilation with isoflurane anaesthesia): not associated with mortality
- LD80 (C57BL6 mice; C57BL6 mice, single tail vein injection, autonomous respiration): 25 mg/kg
- AUC(0-t) (in vivo [4]; 0.1 mg/kg): 125 ± 14.3 ng·h/mL
- C0 (in vivo [4]; 0.1 mg/kg): 560 ± 181 ng/mL
- Cmax (in vivo [4]; 0.1 mg/kg): 410 ± 90.5 ng/mL
- Tmax (in vivo [4]; 0.1 mg/kg): 2.3 ± 0.948 min
- Vd (in vivo [4]; 0.1 mg/kg): 0.385 ± 0.0711 L/kg
- clearance (in vivo [4]; 0.1 mg/kg): 13.2 mL/min/kg
- half-life (in vivo [4]; 0.1 mg/kg): 20.2 ± 2.52 min
- AUC(0-t) (in vivo [4]; 0.3 mg/kg): 504 ± 56.6 ng·h/mL
- C0 (in vivo [4]; 0.3 mg/kg): 2250 ± 463 ng/mL
- Cmax (in vivo [4]; 0.3 mg/kg): 1570 ± 211 ng/mL
- Tmax (in vivo [4]; 0.3 mg/kg): 2 min
- Vd (in vivo [4]; 0.3 mg/kg): 0.342 ± 0.0363 L/kg
- clearance (in vivo [4]; 0.3 mg/kg): 9.8 mL/min/kg
- half-life (in vivo [4]; 0.3 mg/kg): 24.3 ± 3.3 min
- AUC(0-t) (in vivo [4]; 1 mg/kg): 1800 ± 192 ng·h/mL
- C0 (in vivo [4]; 1 mg/kg): 7680 ± 1740 ng/mL
- Cmax (in vivo [4]; 1 mg/kg): 5320 ± 906 ng/mL
- Tmax (in vivo [4]; 1 mg/kg): 2 min
- Vd (in vivo [4]; 1 mg/kg): 0.5 ± 0.085 L/kg
- clearance (in vivo [4]; 1 mg/kg): 9.28 mL/min/kg
- half-life (in vivo [4]; 1 mg/kg): 37.2 ± 3.87 min
- AUC(0-t) (in vivo [4]; 3 mg/kg): 5920 ± 508 ng·h/mL
- C0 (in vivo [4]; 3 mg/kg): 24000 ± 2360 ng/mL
- Cmax (in vivo [4]; 3 mg/kg): 17000 ± 1400 ng/mL
- Tmax (in vivo [4]; 3 mg/kg): 2 min
- Vd (in vivo [4]; 3 mg/kg): 0.645 ± 0.137 L/kg
- clearance (in vivo [4]; 3 mg/kg): 8.48 mL/min/kg
- half-life (in vivo [4]; 3 mg/kg): 52.8 ± 10.2 min
- IC50 (α4β2-nAChR): 500 nM
- AUC(0-t) (in vivo [5]; 0.1 mg/kg): 348 ± 33.7 ng·h/mL
- Cmax (in vivo [5]; 0.1 mg/kg): 320 ± 20.2 ng/mL
- Tmax (in vivo [5]; 0.1 mg/kg): 30 min
- Vd (in vivo [5]; 0.1 mg/kg): 0.564 ± 0.271 L/kg
- clearance (in vivo [5]; 0.1 mg/kg): 4.75 mL/min/kg
- half-life (in vivo [5]; 0.1 mg/kg): 82.8 ± 39.6 min
- AUC(0-t) (in vivo [5]; 0.5 mg/kg): 1650 ± 209 ng·h/mL
- Cmax (in vivo [5]; 0.5 mg/kg): 1500 ± 251 ng/mL
- Tmax (in vivo [5]; 0.5 mg/kg): 30 min
- Vd (in vivo [5]; 0.5 mg/kg): 0.642 ± 0.086 L/kg
- clearance (in vivo [5]; 0.5 mg/kg): 5.12 mL/min/kg
- half-life (in vivo [5]; 0.5 mg/kg): 87.6 ± 10.3 min
- AUC(0-t) (in vivo [5]; 2.5 mg/kg): 8300 ± 1200 ng·h/mL
- Cmax (in vivo [5]; 2.5 mg/kg): 7460 ± 1190 ng/mL
- Tmax (in vivo [5]; 2.5 mg/kg): 30 min
- Vd (in vivo [5]; 2.5 mg/kg): 0.691 ± 0.107 L/kg
- clearance (in vivo [5]; 2.5 mg/kg): 5.08 mL/min/kg
- half-life (in vivo [5]; 2.5 mg/kg): 94.8 ± 12 min
- Kel ([6]; 0.1 mg/kg): 0.566 ± 0.156 h⁻¹
- Kel ([6]; 0.5 mg/kg): 0.481 ± 0.058 h⁻¹
- Kel ([6]; 2.5 mg/kg): 0.445 ± 0.054 h⁻¹
- Direct effect on glutamate-induced currents, AMPA receptor (AMPA receptor): did not directly inhibit
- Kel ([7]; 0.1 mg/kg): 2.09 ± 0.258 h⁻¹
- Kel ([7]; 0.3 mg/kg): 1.73 ± 0.203 h⁻¹
- Kel ([7]; 1 mg/kg): 1.13 ± 0.106 h⁻¹
- Kel ([7]; 3 mg/kg): 0.823 ± 0.204 h⁻¹
- IC50 (α1β1δε-nAChR): 2100 nM
- Time of gradual recovery to normal activity (about two serum clearance half-lives) (Cynologous monkey; supratherapeutic dosing): ~4 h
- Symptoms after supratherapeutic dosing (Cynologous monkey; supratherapeutic iv dosing): mydriasis and ptosis

Molecule: CC(=O)N[C@H](C(=O)N[C@@H](CS)C(=O)N[C@@H](CCCNC(=N)N)C(=O)N[C@@H](CCCNC(=N)N)C(=O)N[C@@H](CCCNC(=N)N)C(N)=O)C(C)C [Ac-VCRRR-NH2] (Ac-VCRRR-NH2)
- %Inhibition of α7-nAChR (α7-nAChR [1]): 5.9%

Molecule: apoE130‐149 (peptide)
- IC50 of inhibition of α7‐nAChR current (electrophysiology); given only as the concentration used, close to the IC50 (α7-nAChR [8]): 500 nM

Molecule: CSCC[C@H](NC(C)=O)C(=O)N[C@@H](CO)C(=O)N[C@@H](CCCNC(=N)N)C(=O)N[C@@H](CCCNC(=N)N)C(=O)N[C@@H](CCCNC(=N)N)C(N)=O [Ac-MSRRR-NH2] (Ac-MSRRR-NH2)
- %Inhibition of α7-nAChR (α7-nAChR [1]): 38.3%

Molecule: Ac-VSRRR-NH2 [CN‐105]
- IC50 of inhibition of α7‐nAChR current (electrophysiology); given only as the concentration used, close to the IC50 (α7-nAChR [8]): 40 nM
